Tested on in one series: not listed separately
Briefly: Storage stability of stock solution. The format is physicochemical. The conditions noted are these: 2 mM in DMSO, stored at −70° C., after 12 months. As for the experimental part:
3-[2,4-Diethyl-5-(2-oxo-5-phenylsulfamoyl-1,2-dihydro-indol-3-ylidenemethyl)-1H-pyrrol-3-yl]-propionic acid was dissolved in DMSO at 20 mg/ml and stored at −70° C. Calicheamicin μl was a generous gift from George Ellestad (Wyeth-Ayers Research). The drug was dissolved at 2 mM in DMSO (Sigma) and stored at −70° C. […] Wortmannin (Sigma) was dissolved at 1 mg/ml in DMSO and stored at −70° C. Recombinant p110 was purchased from Alexis and stored at −70° C. The glioblastoma cell line Mo59K and primary human fibroblasts was grown in Dulbecos MEM with glutamax (Invitrogen) supplemented with 10% Fetal calf serum, streptomycin and penicillin at 37° C. in a humidified cell incubator with 5% CO2. FACS analysis of cell cycle distribution after propiumiodide staining was done using standard protocols. Monolayers were irradiated on ice using a Philips RT 100 X-ray machine. An acceleration voltage of 70 kV was used.
DNA-PKcs, sequence (P78527 whole entry, the tested form may be a part): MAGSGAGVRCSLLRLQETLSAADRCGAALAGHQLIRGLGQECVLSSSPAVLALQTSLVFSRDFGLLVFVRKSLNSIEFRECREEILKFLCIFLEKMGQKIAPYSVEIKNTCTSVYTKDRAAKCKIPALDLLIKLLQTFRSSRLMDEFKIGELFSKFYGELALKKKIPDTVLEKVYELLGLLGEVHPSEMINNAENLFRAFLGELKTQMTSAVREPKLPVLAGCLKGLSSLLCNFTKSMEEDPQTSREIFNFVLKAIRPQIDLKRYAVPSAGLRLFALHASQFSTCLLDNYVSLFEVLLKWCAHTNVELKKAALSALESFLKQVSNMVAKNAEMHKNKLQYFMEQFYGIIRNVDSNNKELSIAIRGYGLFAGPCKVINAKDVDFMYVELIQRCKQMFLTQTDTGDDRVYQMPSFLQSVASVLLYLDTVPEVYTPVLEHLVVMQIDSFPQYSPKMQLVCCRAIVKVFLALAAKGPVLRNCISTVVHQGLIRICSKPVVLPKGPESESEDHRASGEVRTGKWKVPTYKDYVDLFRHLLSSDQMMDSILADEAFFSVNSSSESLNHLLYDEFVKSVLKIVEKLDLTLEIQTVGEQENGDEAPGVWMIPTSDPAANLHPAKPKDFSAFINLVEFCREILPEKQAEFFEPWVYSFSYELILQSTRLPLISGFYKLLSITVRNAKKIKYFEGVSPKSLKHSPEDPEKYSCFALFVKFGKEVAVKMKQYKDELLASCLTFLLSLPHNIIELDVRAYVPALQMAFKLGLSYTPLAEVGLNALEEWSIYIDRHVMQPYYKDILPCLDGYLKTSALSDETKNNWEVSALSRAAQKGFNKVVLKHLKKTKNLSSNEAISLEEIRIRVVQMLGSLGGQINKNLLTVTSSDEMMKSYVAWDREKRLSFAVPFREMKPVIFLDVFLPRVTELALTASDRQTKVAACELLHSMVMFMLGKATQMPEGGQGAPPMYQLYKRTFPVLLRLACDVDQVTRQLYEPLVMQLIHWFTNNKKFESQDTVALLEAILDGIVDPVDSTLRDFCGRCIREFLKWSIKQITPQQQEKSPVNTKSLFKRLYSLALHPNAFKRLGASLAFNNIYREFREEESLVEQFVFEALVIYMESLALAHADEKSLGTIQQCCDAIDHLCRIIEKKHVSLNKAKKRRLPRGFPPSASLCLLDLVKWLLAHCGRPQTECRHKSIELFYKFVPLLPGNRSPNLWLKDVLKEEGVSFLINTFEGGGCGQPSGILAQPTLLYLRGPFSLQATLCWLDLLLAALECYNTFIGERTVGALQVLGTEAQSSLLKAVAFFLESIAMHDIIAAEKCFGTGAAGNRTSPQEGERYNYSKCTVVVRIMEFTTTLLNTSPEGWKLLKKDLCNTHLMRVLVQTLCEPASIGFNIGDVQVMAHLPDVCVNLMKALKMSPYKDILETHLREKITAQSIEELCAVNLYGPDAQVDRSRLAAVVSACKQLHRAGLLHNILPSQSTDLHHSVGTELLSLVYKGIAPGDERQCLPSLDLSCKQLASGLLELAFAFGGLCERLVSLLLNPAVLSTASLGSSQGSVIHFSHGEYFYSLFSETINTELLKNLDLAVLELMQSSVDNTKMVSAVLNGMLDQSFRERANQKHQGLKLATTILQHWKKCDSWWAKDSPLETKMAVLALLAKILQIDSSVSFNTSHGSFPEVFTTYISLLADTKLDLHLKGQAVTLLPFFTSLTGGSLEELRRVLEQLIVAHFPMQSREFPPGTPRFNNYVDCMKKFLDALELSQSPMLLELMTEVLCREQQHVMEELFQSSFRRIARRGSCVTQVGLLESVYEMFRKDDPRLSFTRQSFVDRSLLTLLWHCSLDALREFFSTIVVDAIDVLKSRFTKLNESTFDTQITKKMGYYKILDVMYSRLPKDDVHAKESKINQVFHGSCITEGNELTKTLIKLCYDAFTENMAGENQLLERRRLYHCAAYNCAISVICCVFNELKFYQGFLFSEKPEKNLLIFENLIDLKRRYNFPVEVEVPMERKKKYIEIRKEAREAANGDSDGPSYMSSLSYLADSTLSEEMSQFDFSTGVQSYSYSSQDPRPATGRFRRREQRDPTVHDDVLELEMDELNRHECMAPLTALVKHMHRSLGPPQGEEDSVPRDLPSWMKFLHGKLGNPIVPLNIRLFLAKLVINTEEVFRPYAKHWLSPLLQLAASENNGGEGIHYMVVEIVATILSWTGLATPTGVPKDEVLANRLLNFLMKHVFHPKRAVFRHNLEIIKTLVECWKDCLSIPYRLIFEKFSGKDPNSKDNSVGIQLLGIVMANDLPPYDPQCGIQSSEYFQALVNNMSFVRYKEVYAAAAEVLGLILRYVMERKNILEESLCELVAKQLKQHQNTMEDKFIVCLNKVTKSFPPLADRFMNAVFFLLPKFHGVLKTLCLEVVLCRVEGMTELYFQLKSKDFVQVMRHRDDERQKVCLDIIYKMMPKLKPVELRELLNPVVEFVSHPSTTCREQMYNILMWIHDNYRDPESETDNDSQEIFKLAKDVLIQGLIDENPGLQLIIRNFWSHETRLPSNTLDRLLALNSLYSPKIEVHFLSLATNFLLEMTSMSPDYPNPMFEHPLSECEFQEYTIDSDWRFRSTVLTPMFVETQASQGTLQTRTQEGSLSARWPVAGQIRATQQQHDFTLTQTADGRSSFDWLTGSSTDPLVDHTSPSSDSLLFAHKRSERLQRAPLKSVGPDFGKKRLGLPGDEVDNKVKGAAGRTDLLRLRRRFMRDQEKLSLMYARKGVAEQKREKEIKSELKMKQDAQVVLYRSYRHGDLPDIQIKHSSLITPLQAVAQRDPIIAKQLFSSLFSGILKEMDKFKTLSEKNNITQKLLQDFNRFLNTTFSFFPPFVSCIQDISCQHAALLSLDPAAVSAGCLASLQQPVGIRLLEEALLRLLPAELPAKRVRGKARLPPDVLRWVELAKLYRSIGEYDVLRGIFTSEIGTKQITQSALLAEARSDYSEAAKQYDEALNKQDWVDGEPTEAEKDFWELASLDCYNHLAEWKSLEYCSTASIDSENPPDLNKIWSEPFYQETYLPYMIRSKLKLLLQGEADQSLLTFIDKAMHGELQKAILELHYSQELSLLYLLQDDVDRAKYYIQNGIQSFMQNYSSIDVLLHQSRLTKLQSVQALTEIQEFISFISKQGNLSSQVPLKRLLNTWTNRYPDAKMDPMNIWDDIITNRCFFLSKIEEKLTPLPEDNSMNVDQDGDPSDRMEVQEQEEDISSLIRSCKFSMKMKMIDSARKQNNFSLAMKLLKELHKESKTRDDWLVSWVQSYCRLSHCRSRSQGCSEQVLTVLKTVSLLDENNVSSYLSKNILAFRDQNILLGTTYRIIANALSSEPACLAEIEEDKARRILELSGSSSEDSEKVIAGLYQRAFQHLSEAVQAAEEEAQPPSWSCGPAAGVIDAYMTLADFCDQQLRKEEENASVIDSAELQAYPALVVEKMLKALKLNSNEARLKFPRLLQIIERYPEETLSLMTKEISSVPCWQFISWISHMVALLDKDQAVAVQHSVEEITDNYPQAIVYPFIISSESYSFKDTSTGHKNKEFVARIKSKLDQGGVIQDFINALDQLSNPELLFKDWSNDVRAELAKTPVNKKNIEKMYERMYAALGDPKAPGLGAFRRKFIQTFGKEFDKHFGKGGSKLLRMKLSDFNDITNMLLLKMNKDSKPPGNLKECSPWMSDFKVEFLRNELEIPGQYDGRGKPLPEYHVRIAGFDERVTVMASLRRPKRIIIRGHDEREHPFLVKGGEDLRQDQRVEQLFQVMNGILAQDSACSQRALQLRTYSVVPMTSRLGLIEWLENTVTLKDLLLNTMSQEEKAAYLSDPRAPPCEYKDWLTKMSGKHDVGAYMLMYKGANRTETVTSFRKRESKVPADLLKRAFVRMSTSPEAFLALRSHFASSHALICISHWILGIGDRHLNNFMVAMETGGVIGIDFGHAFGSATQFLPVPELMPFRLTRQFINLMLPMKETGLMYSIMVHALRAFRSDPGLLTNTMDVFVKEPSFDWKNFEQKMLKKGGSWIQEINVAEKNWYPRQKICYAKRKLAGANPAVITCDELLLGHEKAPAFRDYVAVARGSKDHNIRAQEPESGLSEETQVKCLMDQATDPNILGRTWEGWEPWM
Take calicheamicin μl: the “loss of activity on storage” value was “no loss of activity”.

A further series has as its target DNA-PKcs (Homo sapiens, UniProt P78527). Briefly: DNA-PK assay, Scintillation Proximity Assay (SPA) format. The conditions noted are these: room temperature, 0.23 nM DNA-PKcs, 0.3 μM ATP, 1% DMSO. The format is biochemical. The protocol:
The assay for DNA-PK was optimized to be performed in 96-well plates using a Scintillation Proximity Assay (SPA) format at room temperature. […] When inhibitors were included, they were diluted to 5× the desired concentration in 5% DMSO and diluted 1:5 in the reaction mixture bringing the final DMSO concentration to 1%. […] Activating DNA-DNA fragment consisting of 32 complementary base pairs with 5 non-complementary T's on both ends of the two strands Sequence-[NT], and of the complementary strand-[NT]. […] Peptide substrate-biotin-[…]. Dissolved in DMSO at a concentration of 5 mg/ml for the stock solution. Alternatively, fragments of the peptide substrate can be used, such as, without limitation, […]. The kinase reaction was stopped by adding […] of a solution containing 50 μM ATP, 5 mM EDTA, 0.1% Triton X-100, and 0.5 mg of streptavidin coated polyvinyltoluene SPA beads (Amersham). After a 10 min. incubation and a short spin (to pellet the beads), the plates were read on a Trilux plate reader.
Turning to `CNS(=O)(=O)c1ccc2c(c1)C(=Cc1[nH]c3c(c1CCCN(C)C)CCCC3)C(=O)N2` [3-{3-(3-dimethylamino-propyl)-4,5,6,7-tetrahydro-1H-indol-2-ylmethylene]-2-oxo-2,3-dihydro-1H-indole-5-sulfonic acid methylamide], it took 66 µM to reach half-maximal inhibition (IC50).
Same read-out and setting: under `CCN(CC)CCNC(=O)c1c(C)[nH]c(C=C2C(=O)Nc3ccc(Br)cc32)c1C` [5-(5-bromo-2-oxo-1,2-dihydro-indol-3-ylidenemethyl)-2,4-dimethyl-1H-pyrrole-3-carboxylic acid-(2-diethylamino-ethyl)-amide] stands 34 µM.
“2-oxo-3-[5-(2-pyrrolidin-1-yl-ethoxy-1H-indol-2-ylmethylene]-2,3-dihydro-1H-indole-sulfonic acid amide” came in with an IC50 of 1.7 µM.
Still for that read-out and setting: under `Cc1c(CCC(=O)O)c[nH]c1/C=C1\C(=O)Nc2ccc(I)cc21` [3-{5-[(Z)-(5-iodo-2-oxo-1,2-dihydro-3H-indol-3-ylidene)methyl]-4-methyl-1H-pyrrol-3-yl}propanoic acid] stands 1.5 µM.
Still for that read-out and setting: under `CCc1[nH]c(/C=C2\C(=O)Nc3ccc(S(=O)(=O)Nc4ccccc4)cc32)c(CC)c1CCC(=O)O` [Example 83, 3-[2,4-Diethyl-5-(2-oxo-5-phenylsulfamoyl-1,2-dihydro-indol-3-ylidenemethyl)-1H-pyrrol-3-yl]-propionic acid] stands 1.6 µM.
